# Source: patent US20250195490A1, “ALPHA-METHYLENE AND AMINOMETHYL LACTONES AND LACTAMS FOR TREATMENT OF CLOSTRIDIOIDES DIFFICILE INFECTION (CDI)” (Purdue Research Foundation, priority 2022, published 2025)
# Read-outs that look alike come from different tables or passages of the source.
# How the values were obtained:
# L. gasseri = experiment: MIC against human normal gut microbiota: L. gasseri; assay type: cell-based, Lactobacillus gasseri; conditions: Lactobacillus gasseri; L. gasseri HM 407; read-out: MIC
# From the text: (§1) The activity of the selected lactones against the human gut microbiota was also examined. Microbiota interfere with C. difficile's ability to colonize the gastrointestinal tract and subsequently cause infection. Many antibiotics inhibit/kill the endogenous microflora, which permits enhanced colonization by C. difficile and infection. Three different bacterial species that are present in the gut microflora were used in this experiment; Bifidobacterium (anaerobic Gram-positive bacteria), Bacteroides (anaerobic Gram-negative bacteria) and Lactobacillus (microaerophilic Gram-positive bacteria). Ideal compounds/drugs are those with selective antibacterial activity against C. difficile so as to protect the indigenous microflora present in the GI tract from being damaged/killed (which will exacerbate infections caused by C. difficile).
# (§2) Bifidobacterium and Bacteroides were first grown for 48 hours at 37° C., anaerobically, using brain heart infusion supplemented (BHIS) agar (brain heart infusion agar supplemented with hemin, vitamin K and L-cysteine). Lactobacillus was cultivated on MRS agar and incubated in the presence of 5% CO2 for 48 hours at 37° C. Each bacterium was suspended in phosphate-buffered saline (PBS) to achieve 0.5 McFarland standard and subsequently diluted in brain heart infusion supplemented broth (for Bifidobacterium and Bacteroides) or in MRS broth (for Lactobacillus) to achieve a bacterial inoculum of approximately 5×10^5 CFU/mL. Bacteria were then seeded in 96-well plates containing serial dilutions of the compounds and incubated for 48 hours. MICs reported in Table 4 are the minimum concentration of compound/control drug that inhibited the visual growth of bacteria.
# Ba. fragilis = experiment: MIC against human normal gut microbiota: Bacteroides fragilis; assay type: cell-based
# From the text: as §1, §2
# normal gut microflora = experiment: Activity against normal human gut microflora (panel statement); assay type: cell-based
# From the text: as §1
# Bifidobacterium and Bacteroides were first grown for 48 hours at 37° C., anaerobically, using brain heart infusion supplemented (BHIS) agar (brain heart infusion agar supplemented with hemin, vitamin K and L-cysteine). Lactobacillus was cultivated on MRS agar and incubated in the presence of 5% CO2 for 48 hours at 37° C. […]
# Ba. dorsei = experiment: MIC against human normal gut microbiota: Bacteroides dorsei; assay type: cell-based
# From the text: as §1, §2
# Bi. breve = experiment: MIC against human normal gut microbiota: Bifidobacterium breve; assay type: cell-based; conditions: Bifidobacterium breve; Bi. breve HM 856; read-out: MIC
# From the text: as §1, §2
# L. crispatus = experiment: MIC against human normal gut microbiota: L. crispatus; assay type: cell-based, Lactobacillus crispatus; conditions: Lactobacillus crispatus, read-out: MIC
# From the text: as §1, §2
# [1] = system: clinically important Clostridioides difficile strains; experiment: MIC against clinically important Clostridioides difficile strains; assay type: cell-based; conditions: Clostridioides difficile, read-out: MIC
# Description: (§3) The antibacterial activity of compounds 48, 50, 51, 61 and 85 against a panel of Clostridioides difficile strains was evaluated. A bacterial solution equivalent to 0.5 McFarland standard was prepared and diluted in brain heart infusion broth supplemented with hemin and vitamin K. Compounds and control drugs were added in the first row of 96-well plates and serially diluted with media containing bacteria (to achieve a concentration gradient ranging from 128 to 1 μg/mL). Plates were then incubated anaerobically at […] for 48 hours.
# L. reuteri = experiment: MIC against human normal gut microbiota: L. reuteri; assay type: cell-based, Lactobacillus reuteri; conditions: Limosilactobacillus reuteri; L. reuteri HM 120; read-out: MIC
# From the text: as §1, §2
# Bi. longum = experiment: MIC against human normal gut microbiota: Bifidobacterium longum; assay type: cell-based; conditions: Bifidobacterium longum; Bi. longum HM 848; read-out: MIC
# From the text: as §1, §2
# L. casei = experiment: MIC against human normal gut microbiota: L. casei; assay type: cell-based, Lactobacillus casei; conditions: Lacticaseibacillus casei; L. casei HM 334; read-out: MIC
# From the text: as §1, §2
# Clostridioides difficile = experiment: MIC by broth microdilution against Clostridioides difficile (Table 1); assay type: cell-based; conditions: Clostridioides difficile, BAA1870; anaerobic, 48 hours; strain BAA-1870; read-out: MIC Clostridioides difficile
# Description: Method: The minimum inhibitory concentration (MIC) of the compounds and control drugs, linezolid (antibiotic), vancomycin (antibiotic), 5-fluorocytosine (5-FC, antifungal drug), and fluconazole (antifungal drug) was determined using the broth microdilution method according to the guidelines outlined by the Clinical and Laboratory Standards Institute (CLSI) against clinically relevant bacterial (methicillin-resistant Staphylococcus aureus (MRSA), vancomycin-resistant Enterococcus faecalis (VRE), vancomycin-resistant Enterococcus faecium (VRE), Clostridioides difficile and Escherichia coli) and fungal (Candida albicans) strains. A solution equivalent to 0.5 McFarland standard was prepared from each strain and diluted in cation-adjusted Mueller-Hinton broth (for S. aureus and E. coli), tryptone soy broth (for E. faecalis), or brain heart infusion broth (for E. faecium) to achieve a bacterial inoculum of about 5×10^5 CFU/mL. C. difficile strains were cultured in brain heart infusion broth supplemented with hemin and vitamin K. C. albicans was diluted in RPMI medium supplemented with 3-(N-morpholino) propanesulfonic acid to achieve a fungal concentration of about 1.5×10^3 CFU/mL. Compounds and control drugs were added in the first row of the 96-well plates and diluted with media containing bacteria (to achieve a concentration gradient ranging from 128 to 1 μg/mL). For MRSA, VRE, and E. coli strains, plates were then incubated aerobically at 37° C. for at least 18 hours. C. albicans was incubated aerobically at 37° C. for 24 hours. Plates containing C. difficile were incubated anaerobically at […] for 48 hours.
# [2] = system: hypervirulent Clostridioides difficile strains; experiment: MIC against hypervirulent Clostridioides difficile strains; assay type: cell-based; conditions: Clostridioides difficile
# Description: as §3
smiles,measurement,setting,value
"Cc1ncc([N+](=O)[O-])n1CCO [Metronidazole, reference compound]",MIC,L. gasseri,> 128 µg/mL
same,MIC,Ba. fragilis; Ba. fragilis HM 710,≤1 µg/mL
same,MIC,Ba. fragilis; Ba. fragilis HM 711,≤1 µg/mL
same,MIC,Ba. fragilis; Ba. fragilis HM 714,≤1 µg/mL
same,MIC,"Ba. fragilis; Bacteroides fragilis, Ba. fragilis HM 709, read-out: MIC",≤ 1 µg/mL
same,inhibition of bacteria of the normal gut microflora,normal gut microflora,inhibited growth of species of Bacteroides and Bifidobacterium
same,MIC,Ba. dorsei; Ba. dorsei HM 717,≤1 µg/mL
same,MIC,"Ba. dorsei; Bacteroides, Ba. dorsei HM 29, read-out: MIC",≤ 1 µg/mL
same,MIC,Bi. breve,≤ 1 µg/mL
same,MIC,L. crispatus; L. crispatus HM 375,> 128 µg/mL
same,MIC,L. crispatus; L. crispatus HM 421,> 128 µg/mL
same,MIC,[1]; CD strain 16,0.25 µg/mL
same,MIC,[1]; CD strain 18,≤ 0.06 µg/mL
same,MIC,[1]; CD strain 19,0.125 µg/mL
same,MIC,[1]; CD strain 1801,0.125 µg/mL
same,MIC,[1]; CD strain 43255,0.125 µg/mL
same,MIC,[1]; CD strain P6,≤ 0.06 µg/mL
same,MIC,[1]; CD strain P7,0.25 µg/mL
same,MIC,[1]; CD strain P13,≤ 0.06 µg/mL
same,MIC,[1]; CD strain P19,0.25 µg/mL
same,MIC,L. reuteri,> 128 µg/mL
same,MIC,Bi. longum,64 µg/mL
same,MIC,L. casei,> 128 µg/mL
same,MIC,Clostridioides difficile,0.25 µg/mL
same,MIC,[2]; CD strain 81,0.125 µg/mL
same,MIC,[2]; CD strain 82,0.25 µg/mL
same,MIC,[2]; CD strain 83,0.25 µg/mL
same,MIC,[2]; CD strain 84,0.25 µg/mL
same,MIC,[2]; CD strain 85,0.25 µg/mL
same,MIC,[2]; CD strain 86,0.125 µg/mL
same,MIC,[2]; CD strain 87,0.125 µg/mL
same,MIC,[2]; CD strain 90,0.125 µg/mL
same,MIC,[2]; CD strain 49279,0.125 µg/mL
same,MIC,[2]; CD strain 49287,≤ 0.06 µg/mL
same,MIC,[2]; CD strain 49291,0.125 µg/mL
